According to patent publication US20250235499A1, “ANTI-OVARIAN CANCER PHARMACEUTICAL COMPOSITION AND ACTION TARGET THEREOF” (Zhejiang Chinese Medical University, priority 2024, published 2025):

Assays:
Hey ovarian cancer cell = experiment: Tumor bearing nude mouse model (tumor volume, tumor inhibition rate, body weight); format: in vivo, BALB/c nude mice; conditions: intraperitoneal, 15 days; DDP 3 mg/kg, CA 80 mg/kg, BDMC 5 mg/kg; compared to the Control group, P<0.01
Procedure: Newly housed BALB/c nude mice were placed in an SPF grade feeding room laminar flow rack for adaptive feeding for one week, and the experimental animal status was adjusted. A Hey ovarian cancer cell was cultivated to the logarithmic growth stage, and the original culture medium was discarded. The Hey ovarian cancer cell was washed with PBS buffer, added with 0.1% trypsin digestion for digestion, added with the corresponding culture medium to terminate digestion, centrifuged at 1000 rpm for 3 minutes, and added with PBS buffer to prepare a cell suspension. The cell was counted using a hemocytometer, and the cell concentration was quantified to 5×10^7 cells/mL. After grasping and fixing the nude mouse with the left hand, and the skin at a needle inserting site on the right forelimb axilla of the nude mouse was disinfected with a 75% alcohol cotton ball. A disposable 1 mL syringe was used to inject approximately 100 μL of cell suspension subcutaneously into the posterior axilla of the right forelimb in an oblique stabbing inserting needle mode, so that each nude mouse was injected with approximately 5×10^6 cells. After vaccination, the needle inserting site was gently pressed with a cotton ball to prevent the cell suspension from leaking from a needle hole. The growth status of tumors at the vaccination site of nude mice was observed daily. After about one week, if the tumors at the vaccination site were compacted and appeared light red in color, it could be considered as successful tumor growth. At this time, the nude mice were randomly divided into 5 groups, a Control group intraperitoneally injected with physiological saline for 1 day each time; a DDP group intraperitoneally injected with cisplatin, 3 mg/kg, 3 d/time; a CA group intraperitoneally injected with CA, 80 mg/kg, 1 d/time; a BDMC group intraperitoneally injected with BDMC, 5 mg/kg, 1 d/time; a CA+BDMC group intraperitoneally injected with CA 80 mg/kg+BDMC 5 mg/kg, 1 d/time, 8 animals per group. A tumor length (L) and a […] were measured with a vernier caliper every 3 days to calculate a tumor volume. After 15 days of administration, nude mice were euthanized by dislocation of cervical vertebra, and tumor tissue was dissected. The tumor weight was weighed to calculate the tumor inhibition rate. The tumor tissue was stored in two batches at −80° C. and fixed with 4% paraformaldehyde.

[1] = test system: MCM2, CDK4, Cyclin D1, P21; experiment: Western Blot of tumor body cyclin in tumor bearing nude mice; format: in vivo, BALB/c nude mice; conditions: nude mouse tumor body, compared to the Control group
Excerpt: The expression of nude mice tumor body cyclin and EMT related proteins in tumor bearing nude mice after intervention with DDP, CA, BDMC, and combined administration was shown in FIG. 29. In the figure, 1 represented the Control group; 2 represented the DDP group; 3 represented the CA group; 4 represented the BDMC group; and 5 represented the CA+BDMC group.

SMILES: N.N.[Cl][Pt][Cl] [DDP, cisplatin, reference compound]
- tumor inhibition rate (Hey ovarian cancer cell): significantly increased
- tumor volume size (Hey ovarian cancer cell): significantly reduced
- expression of CDK4 protein (Western Blot) [1]: significantly decreased
